Source: PMC3927586, “Protein kinase C-delta inactivation inhibits the proliferation and survival of cancer stem cells in culture and in vivo” (BMC Cancer, 2014)

How the values were obtained:
Assay type in all cases: cell-based, human
DU145 = experiment: Tumor spheroid growth, DU145 prostate cancer; conditions: p < 0.001
PC3 = experiment: Tumor spheroid growth, PC3 prostate cancer; conditions: p < 0.001
Panc1 = experiment: Tumor spheroid growth, Panc1 pancreatic cancer; conditions: p < 0.001
PCSC cells = experiment: Cytotoxicity (LDH release) in pancreatic cancer stem cells
Procedure: LDH release was assessed by spectrophotometrically measuring the oxidation of NADH in both the cells and media. Cells were seeded in 24-well plates, and exposed to PKCδ inhibitors or vehicle. After different times of exposure, cytotoxicity was quantified by a standard measurement of LDH release with the use of the LDH assay kit (Roche Molecular Biochemicals) according to the manufacturer’s protocol. Briefly, total culture medium was cleared by centrifugation. For assay of released LDH, supernatants were collected. To assess total LDH in cells, Triton X-100 was added to vehicle (control) wells to release intracellular LDH. LDH assay reagent was added to lysates or supernatants and incubated for up to 30 min at room temperature in dark, the reaction was stopped, and the absorbance was measured at 490 nm. The percentage of LDH release was then calculated as the LDH in the supernatants as a fraction of the total LDH.
Figure 2 Effects of PKCδ inhibitors on human cancer stem cells. (A) PCSC and PrCSC cells at 80% confluence were exposed to rottlerin. DMSO served as vehicle control (Vehicle). After 24 and 72 hr of exposure, cell mass was evaluated by MTT assay. Control values were normalized to 100%. p values for comparison between treatments reached significance at 24 hr of exposure (p≤0.01) for both cell types, and remained significant at 72 hr. (B) PCSC and PrCSC cells at 50% confluence were exposed to rottlerin. Cytotoxicity was evaluated by LDH-release assay. Total maximal LDH release was assigned the arbitrary value of 100% (Control). p values for comparison between effects of treatments on LDH release reached significance at 24 hr of exposure (p<0.01) for both cell types, and remained significant at 72 hr. (C) Effects of PKCδ inhibitor on tumor cell clonogenic capacity. PCSC were exposed to vehicle or rottlerin (10 μM) for 6, 18, 24, or 48 hr. Viable cells were enumerated and re-plated in media without inhibitor, and colony numbers were quantitated 15 days later. p values for comparison of treatment effects on clonogenic capacity reached significance (p=0.005) at 18 hr of exposure and remained significant for all subsequent exposure times. The insert is a photograph of stained colonies on plates. (D) Structures of staurosporine, rottlerin, second-generation (KAM1) and third-generation (BJE6-106) derivatives. (E) PCSC and PrCSC cells at 50% confluence were exposed to KAM1 at the indicated concentrations. DMSO served as vehicle control (Vehicle). Cytotoxicity was evaluated by LDH-release assay, as in panel B. p values for comparison between treatment effects on LDH release reached significance at 24 hr of exposure to 2.5 μM KAM1 for PCSC cells and at 10 μM for PrCSC (p≤0.01), and remained significant at 72 hr for all concentrations of KAM1. Error bars represent SEM.

[1] = tested on: pancreatic cancer stem cells (PCSC); experiment: Tumor spheroid formation, PCSC; conditions: added to culture medium, 96 hr, p≤0.001
Procedure: Tumor self-renewing and anchorage-independent spheroids were obtained by culturing breast cancer cells MCF7, Hs587T and MDA231; melanoma cells SBcl2 and FM6; human breast cancer stem cells and pancreatic cancer stem cells in stem cell-selective conditions according to the manufacturer’s instructions (StemCell Technologies, Tukwila, WA). Briefly, cancer and cancer stem cells were propagated in 6-well ultra-low adherent plates (Corning) in Complete MammoCult Medium (Human) by adding 50 mL of MammoCult Proliferation Supplements to 450 mL of MammoCult Basal Medium (StemCell Technologies). The following were added to obtain Complete MammoCult Medium: 4 ug/mL Heparin (StemCell Technologies), 0.48 μg/mL hydrocortisone (StemCell Technologies), 200 U penicillin/ml; and 200 μg streptomycin/ml (Invitrogen).
Figure 4 Effects of PKCδ inhibitors on human tumor cell spheroid formation. […] Tumor spheroids and adherent cells were collected at 96 hr, stained for CD24 and CD44, and analyzed by flow cytometry. […] After 24, 48 and 72 hr of exposure, cell mass was evaluated by MTT assay. […] Viable cells were enumerated and re-plated in media without BJE6-206, and spheroid numbers were quantitated 96 hr later. p values for comparison between vehicle and BJE6-106 effects on spheroid number were significant after 6 hr of exposure (p≤0.02), and remained significant at all time points thereafter. […]

CC(=O)c1c(O)c(C)c(O)c(Cc2c(O)c3c(c(C(=O)/C=C/c4ccccc4)c2O)OC(C)(C)C=C3)c1O [rottlerin, Rottlerin, reference compound]
inhibition at 10 µM (DU145; Homo sapiens, DU-145, rottlerin at 10 μM): > 98%
inhibition at 10 µM (PC3; Homo sapiens, PC-3, rottlerin at 10 μM): > 96%
inhibition at 10 µM (Panc1; Homo sapiens, PANC-1, rottlerin at 10 μM): > 99%
cytotoxicity in PCSC (LDH release) (PCSC cells; dose-dependent, 24 and 72 hr): induced cytotoxicity
effect on formation of spheroids, PCSC [1]: very efficiently inhibited

CC1(C)C=Cc2cc(CCn3c4ccccc4c4ccccc43)cc(C=O)c2O1 [BJE6-106, 6-(2-(9H-carbazol-9-yl)ethyl)-2,2-dimethyl-2H-chromene-8-carbaldehyde]
inhibition of tumor spheroid growth, DU145 (DU145; BJE6-106 at 0.5-1.0 μM): > 98%
inhibition of tumor spheroid growth, PC3 (PC3; BJE6-106 at 0.5-1.0 μM): > 96%
inhibition of tumor spheroid growth, Panc1 (Panc1; BJE6-106 at 0.5-1.0 μM): > 99%
increase in potency compared to rottlerin, LDH release (PCSC cells; data not shown): greater than 10 fold
effect on formation of spheroids, PCSC [1]: very efficiently inhibited
